From patent publication US12612412B2, “Antiviral heterocyclic compounds” (Enanta Pharmaceuticals, Inc., priority 2021, dated 2026) come the findings set out here.

Read-outs that look alike come from different tables or passages of the source.

For assay [1], the system named is recombinant HMPV CAN97-83 containing eGFP (MPV-GFP1). As to the kind of experiment: HMPV antiviral assay Method-A (MPV-GFP1 eGFP fluorescence in Vero E6 cells). It counts as cell-based, Human metapneumovirus (HMPV). To be noted: read-out: HMPV EC50. The protocol:
HMPV antiviral activity was evaluated using a recombinant version of HMPV CAN97-83 engineered to contain the coding sequence for enhanced green fluorescence protein (eGFP) in the 3′ end of the virus genome (MPV-GFP1, ViraTree). Vero E6 cells ([…]) were seeded at a density of 12,000 cells/100 μL/well into 96-well cell plates one day prior to the assay. On the day of screening, the cell culture medium was aspirated from the wells and cells were washed twice with serum-free Eagle's Modified Essential Medium (EMEM, ATCC #) containing 1% penicillin-streptomycin (Invitrogen) (SF-EMEM). Cell washes were performed by dispensing 100 μL SF-EMEM per well and immediately aspirating the wash medium from the well. Following the second wash step, serum-free OptiMEM (Invitrogen, Cat No.) (SF-OptiMEM) containing 0.5 μg/mL TPCK-Trypsin (VENDOR) and 1% penicillin-streptomycin was added to the cells at 50 μL/well. Compounds were added into the 96-well plates using a JANUS automated liquid handling system (VENDOR). Compounds were initially diluted 1:50 into an intermediate 96-well plate containing SF-OptiMEM prior to transfer to the assay plate (25 μL/well). Each of the test compounds were tested in duplicate wells at final concentrations starting from 8 μM or 2 μM using ½ stepwise dilutions for a total of 8 points. Virus infection was performed by preparing a working stock of MPV-GFP1 at a multiplicity of infection (MOI) equal to 0.05/25 μL and aliquoting 25 μL of virus inoculum to the compound and positive control wells. SF-OptiMEM was added (25 μL/well) to the appropriate wells to serve as a virus-free negative control for the assay. The final DMSO concentration of all wells is 0.5%. Plates were incubated at 32° C., 5% CO2 for 5 days.
After 5 days incubation, eGFP fluorescence intensity was measured at (X) […] wavelength using a Spectramax i3× plate reader (VENDOR). Percent viral inhibition was calculated using the following equation: y=[…]
Where XQ is the fluorescence intensity measured in a well containing recombinant MPV-GFP1-infected, compound-treated cells and XP is the average fluorescence intensity measured in the wells containing untreated cells infected with recombinant virus. EC50 values were then calculated by non-linear regression using a four parameter curve logistic equation. The curve fit model employed was XLFit Dose Response One Site Model 200: y=(A+(B/(1+((x/C)^D))))
Where A is the minimum y value, B is the maximum y value, C is the log EC50 value, and D is the slope factor. […] EC50 ranges are as follows: A<0.5 μM; B>0.5 μM.

In assay [2] the test system is genotype A, "Long" strain RSV. As to the kind of experiment: RSV-A assay (CPE protection in Hep-2 cells, ATPlite readout). It counts as cell-based, Human respiratory syncytial virus (HRSV). To be noted: genotype A “Long” strain RSV, MOI 0.1, CPE protection, read-out: Human RSV-A (“Long”). In short, it runs like this:
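ATPlite luminescence (cellular ATP) served as the measure of cell health after 5 days of infection. Hep-2 cells at 8,000 per well received duplicate 2-fold compound dilutions plus virus at MOI 0.1, and EC50 was calculated from CPE protection.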
(Cellular ATP, detected with luciferase, serves as a proxy for viable cell number.)

The mark [3] stands for this setting: human metapneumovirus, Vero C1008, 120 h.
Where [4] appears, read: human respiratory syncytial virus.

Consider `C[C@]1(C(N)=O)COc2c1cc([C@@](O)(CNC(=O)c1cc(C3CC3)c3nn(C(F)F)cc3c1)C(F)(F)F)nc2-c1ccc(F)c(Cl)c1` [Example 48], for which the EC50 in assay [1] (setting [3]) was below 500 nM; in assay [2] (setting [4]) it was below 200 nM.
Regarding `COc1cc(C(=O)NC[C@](O)(c2cc3c(c(-c4ccc(F)cc4)n2)OC[C@]3(C)C(N)=O)C(F)(F)F)cn2cc(C(F)(F)F)nc12` [Example 49], the EC50 was above 500 nM in assay [1] (setting [3]) and below 200 nM in assay [2] (setting [4]).
`Cc1cn2cc(C(=O)NC[C@](O)(c3cc4c(c(-c5ccc(F)cc5)n3)OC[C@]4(C)C(N)=O)C(F)(F)F)ccc2n1` [Example 50]: the EC50 is above 500 nM in assay [1] (setting [3]) and below 200 nM in assay [2] (setting [4]).
In the same order, the values of `C[C@]1(C(N)=O)COc2c1cc([C@@](O)(CNC(=O)c1ccc3nc(C4CC4)cn3c1)C(F)(F)F)nc2-c1ccc(F)cc1` [Example 51] are below 500 nM and below 200 nM.
In the same order, the values of `Cc1cn2cc(C(=O)NC[C@](O)(c3cc4c(c(-c5ccc(F)cc5)n3)OC[C@]4(C)C(N)=O)C3CC3)ccc2n1` [Example 52] are below 500 nM and below 200 nM.
`C[C@]1(C(N)=O)COc2c1cc([C@@](O)(CNC(=O)c1ccc3nc(C4CC4)cn3c1)C1CC1)nc2-c1ccc(F)cc1` [Example 53]: the values for the EC50 in assay [1] (setting [3]) and in assay [2] (setting [4]) were below 500 nM and below 200 nM, respectively.
Turning to `C[C@]1(C(N)=O)COc2c1cc([C@@](O)(CNC(=O)c1ccc3nc(C(F)(F)F)cn3c1)C(F)(F)F)nc2-c1ccc(F)cc1` [Example 54], the values for the EC50 in assay [1] (setting [3]) and in assay [2] (setting [4]) were above 500 nM and below 200 nM, respectively.
For `Cc1cn2cc(C(=O)NC[C@](O)(c3cc4c(c(-c5ccc(F)cc5)n3)OC[C@]4(C)C(N)=O)C(F)(F)F)cc(Cl)c2n1` [Example 55], in that order: below 500 nM and below 200 nM.
Regarding `C[C@]1(C(N)=O)COc2c1cc([C@@](O)(CNC(=O)c1cc(F)c3nc(C4CC4)cn3c1)C(F)(F)F)nc2-c1ccc(F)cc1` [Example 57], the EC50 in assay [1] (setting [3]) is above 500 nM; in assay [2] (setting [4]), below 200 nM.
For `C[C@]1(C(N)=O)COc2c1cc([C@@](O)(CNC(=O)c1cc(F)c3nc(C4CC4)cn3c1)C(F)(F)F)nc2-c1ccc(F)c(Cl)c1` [Example 58], in that order: below 500 nM and below 200 nM.
As to `COc1cc(C(=O)NC[C@](O)(c2cc3c(c(-c4ccc(F)c(Cl)c4)n2)OC[C@]3(C)C(N)=O)C(F)(F)F)cn2cc(C3CC3)nc12` [Example 59], the values for the EC50 in assay [1] (setting [3]) and in assay [2] (setting [4]) were below 500 nM and below 200 nM, respectively.
For `C[C@]1(C(N)=O)COc2c1cc([C@@](O)(CNC(=O)c1ccc3nc(C4CC4)cn3c1)C(F)(F)F)nc2-c1ccc(F)c(Cl)c1` [Example 60], in that order: below 500 nM and below 200 nM.
For `COc1cc(C(=O)NC[C@](O)(c2cc3c(c(-c4ccc(F)cc4)n2)OC[C@]3(C)C(N)=O)C(F)(F)F)cn2cc(CF)nc12` [Example 62], in that order: above 500 nM and below 200 nM.
In the same order, the values of `C[C@]1(C(N)=O)COc2c1cc([C@@](O)(CNC(=O)c1cc(F)c3nc(CF)cn3c1)C(F)(F)F)nc2-c1ccc(F)cc1` [Example 63] are above 500 nM and below 200 nM.
Take `COc1cc(C(=O)NC[C@](O)(c2cc3c(c(-c4ccc(F)cc4)n2)OC[C@]3(C)C(N)=O)C(F)(F)F)cn2cc(C(F)F)nc12` [Example 64]: the EC50 in assay [1] (setting [3]) was above 500 nM; in assay [2] (setting [4]), below 200 nM.
In the case of `COc1cc(C(=O)NC[C@](O)(c2cc3c(c(-c4ccc(F)c(Cl)c4)n2)OC[C@]3(C)C(N)=O)C(F)(F)F)cn2cc(C(F)F)nc12` [Example 65], the values for the EC50 in assay [1] (setting [3]) and in assay [2] (setting [4]) were above 500 nM and below 200 nM, respectively.
In the case of `CC1(C(N)=O)COc2c1cc(C(O)(CNC(=O)c1cc(OCC(F)F)n3nc(C4CC4)cc3c1)C(F)(F)F)nc2-c1ccc(F)cc1` (centres unmarked) [Example 68], the EC50 in assay [1] (Method-A, MPV-GFP1 in Vero E6 cells, eGFP fluorescence after 5 days) is below 500 nM; in assay [2], below 200 nM.
In the case of `Cc1cnc2c(Cl)cc(C(=O)NC[C@](O)(c3cc4c(c(-c5ccc(F)cc5)n3)OC[C@]4(C)C(N)=O)C(F)(F)F)cc2c1` [Example 70], the EC50 was below 500 nM in assay [1] (setting [3]) and below 200 nM in assay [2] (setting [4]).
In the same order, the values of `C[C@]1(C(N)=O)COc2c1cc([C@@](O)(CNC(=O)c1cc(Cl)c3ncc(C4CC4)cc3c1)C(F)(F)F)nc2-c1ccc(F)cc1` [Example 72] are below 500 nM and below 200 nM.
In the case of `C[C@]1(C(N)=O)COc2c1cc([C@@](O)(CNC(=O)c1cc(Cl)c3ncc(C(F)(F)F)cc3c1)C(F)(F)F)nc2-c1ccc(F)cc1` [Example 73], the EC50 in assay [1] (setting [3]) was below 500 nM; in assay [2] (setting [4]), below 200 nM.
In the same order, the values of `Cc1cc2cc(C(=O)NC[C@](O)(c3cc4c(c(-c5ccc(F)cc5)n3)OC[C@]4(C)C(N)=O)C(F)(F)F)cc(O)c2nc1C` [Example 74] are below 500 nM and below 200 nM.
In the same order, the values of `COc1cc(C(=O)NC[C@](O)(c2cc3c(c(-c4ccc(F)cc4)n2)OC[C@]3(C)C(N)=O)C(F)(F)F)cc2cc(CO)c(C)nc12` [Example 75] are above 500 nM and below 200 nM.
In the case of `Cc1nc2c(Cl)cc(C(=O)NC[C@](O)(c3cc4c(c(-c5ccc(F)cc5)n3)OC[C@]4(C)C(N)=O)C(F)(F)F)cc2s1` [Example 77], the EC50 in assay [1] (setting [3]) was below 500 nM; in assay [2] (setting [4]), below 200 nM.
In the same order, the values of `COc1cc(C(=O)NC[C@](O)(c2cc3c(c(-c4ccc(F)cc4)n2)OC[C@]3(C)C(N)=O)C(F)(F)F)cc2cc(C3CC3)c(C)nc12` [Example 78] are above 500 nM and below 200 nM.
In the same order, the values of `Cc1nc2c(OC3CC3)cc(C(=O)NC[C@](O)(c3cc4c(c(-c5ccc(F)cc5)n3)OC[C@]4(C)C(N)=O)C(F)(F)F)cc2s1` [Example 80] are below 500 nM and below 200 nM.
For `COc1cc(C(=O)NC[C@](O)(c2cc3c(c(-c4ccc(F)cc4)n2)OC[C@]3(C)C(N)=O)C(F)(F)F)cc2cc(C3CC3)nnc12` [Example 81], in that order: above 500 nM and below 200 nM.
Consider `COc1cc(C(=O)NC[C@](O)(c2cc3c(c(-c4ccc(F)cc4)n2)OC[C@]3(C)C(N)=O)C(F)(F)F)cc2cc(Cl)c(C)nc12` [Example 82], for which the EC50 in assay [1] (setting [3]) is below 500 nM; in assay [2] (setting [4]), below 200 nM.
Take `COc1cc(C(=O)NC[C@](O)(c2cc3c(c(-c4ccc(F)cc4)n2)OC[C@]3(C)C(N)=O)C(F)(F)F)cc2cc(C(F)(F)F)c(C)nc12` [Example 83]: the results for the EC50 in assay [1] (setting [3]) and in assay [2] (setting [4]) were below 500 nM and below 200 nM, respectively.
For `C[C@]1(C(N)=O)COc2c1cc([C@@](O)(CNC(=O)c1cc(Cl)c3nn(C4CC4)cc3c1)C(F)(F)F)nc2-c1ccc(F)cc1` [Example 84], in that order: below 500 nM and below 200 nM.
For `C[C@]1(C(N)=O)COc2c1cc([C@@](O)(CNC(=O)c1cc(Cl)c3nn(C4CC4)cc3c1)C(F)(F)F)nc2-c1ccc(F)c(Cl)c1` [Example 85], in that order: below 500 nM and below 200 nM.
For the compound `COc1cc(C(=O)NC[C@](O)(c2cc3c(c(-c4ccc(F)c(Cl)c4)n2)OC[C@]3(C)C(N)=O)C(F)(F)F)cc2cc(C3CC3)nnc12` [Example 86], the EC50 in assay [1] (setting [3]) was below 500 nM; in assay [2] (setting [4]), below 200 nM.
In the same order, the values of `C[C@]1(C(N)=O)COc2c1cc([C@@](O)(CNC(=O)c1cc(Cl)c3nc(N)oc3c1)C(F)(F)F)nc2-c1ccc(F)cc1` [Example 91] are above 500 nM and below 200 nM.
In the same order, the values of `COc1cc(C(=O)NC[C@](O)(c2cc3c(c(-c4ccc(F)cc4)n2)OC[C@]3(C)C(N)=O)C(F)(F)F)cc2cc(C3CC3)nn12` [Example 92] are below 500 nM and below 200 nM.
In the case of `C[C@]1(C(N)=O)COc2c1cc([C@@](O)(CNC(=O)c1cc(Cl)c3[nH]c(C4CC4)nc3c1)C(F)(F)F)nc2-c1ccc(F)cc1` [Example 94], the figures for the EC50 in assay [1] (setting [3]) and in assay [2] (setting [4]) were above 500 nM and below 200 nM, respectively.
